Legend:
late watergrass = assay: Test Example 1: herbicidal activity, application before weed generation under submerged conditions (Table 16, symbol A); format: in vivo, late watergrass (Echinochloa oryzicola); settings: 320 g/ha applied herbicide
Summary of the method: (§1)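 Emulsion formulation, water-diluted to set dose, was put onto the flooded surface (4 cm depth, alluvial soil) the same day weeds were sown and 2.5-leaf rice transplanted. After 3 weeks at 25-30 °C under glass, each species was rated 0 (≤5% kill) to 5 (≥90% kill).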

Japanese bulrush = assay: Test Example 1: herbicidal activity, application before weed generation under submerged conditions (Table 16, symbol B); format: in vivo, Japanese bulrush (Schoenoplectus juncoides); settings: 320 g/ha applied herbicide
Summary of the method: as §1

oval-leafed pondweed = assay: Test Example 1: herbicidal activity, application before weed generation under submerged conditions (Table 16, symbol C); format: in vivo, oval-leafed pondweed (Monochoria vaginalis); settings: 320 g/ha applied herbicide
Summary of the method: as §1

barnyard grass [1] = assay: Test Example 3: herbicidal effect by foliage application, Wagner pot (Table 18, symbol H); format: in vivo, barnyard grass (Echinochloa crus-galli)
Summary of the method: (§2)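 Plants were sown in alluvial soil held under 0.1–0.5 cm standing water and grown 14 days in a greenhouse at 25–30 °C. An emulsifiable formulation, water-diluted to the set dose, was then sprayed onto the foliage, and effects were scored three weeks later using previously defined criteria.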

Chinese sprangletop = assay: Test Example 3: herbicidal effect by foliage application, Wagner pot (Table 18, symbol D); format: in vivo, chinese sprangletop (Leptochloa chinensis)
Summary of the method: as §2

rice flat sedge = assay: Test Example 3: herbicidal effect by foliage application, Wagner pot (Table 18, symbol E); format: in vivo, rice flat sedge (Cyperus iria)
Summary of the method: as §2

southern crabgrass [2] = assay: Test Example 4: herbicidal effect by soil treatment (Table 19, symbol F); format: in vivo, southern crabgrass (Digitaria ciliaris)
Summary of the method: (§3)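 Emulsion of test compound, water-diluted to predetermined amount, sprayed on soil after sowing (seed depth ~1.5 cm, sterilized diluvial soil). Greenhouse, 25–30° C. Effect graded at three weeks post-spray.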

green foxtail [3] = assay: Test Example 4: herbicidal effect by soil treatment (Table 19, symbol G); format: in vivo, green foxtail (Setaria viridis)
Summary of the method: as §3

barnyard grass [4] = assay: Test Example 4: herbicidal effect by soil treatment (Table 19, symbol H); format: in vivo, barnyard grass (Echinochloa crus-galli)
Summary of the method: as §3

wild oat [5] = assay: Test Example 4: herbicidal effect by soil treatment (Table 19, symbol I); format: in vivo, wild oat (Avena fatua)
Summary of the method: as §3

blackgrass [6] = assay: Test Example 4: herbicidal effect by soil treatment (Table 19, symbol J); format: in vivo, blackgrass (Alopecurus myosuroides)
Summary of the method: as §3

Italian ryegrass [7] = assay: Test Example 4: herbicidal effect by soil treatment (Table 19, symbol K); format: in vivo, Italian ryegrass (Lolium multiflorum)
Summary of the method: as §3

windgrass [8] = assay: Test Example 4: herbicidal effect by soil treatment (Table 19, symbol L); format: in vivo, windgrass (Apera spica-venti)
Summary of the method: as §3

velvetleaf [9] = assay: Test Example 4: herbicidal effect by soil treatment (Table 19, symbol M); format: in vivo, velvetleaf (Abutilon theophrasti)
Summary of the method: as §3

redroot pigweed = assay: Test Example 4: herbicidal effect by soil treatment (Table 19, symbol N); format: in vivo, redroot pigweed (Amaranthus retroflexus)
Summary of the method: as §3

lambsquarters [10] = assay: Test Example 4: herbicidal effect by soil treatment (Table 19, symbol O); format: in vivo, lambsquarters (Chenopodium album)
Summary of the method: as §3

chickweed [11] = assay: Test Example 4: herbicidal effect by soil treatment (Table 19, symbol P); format: in vivo, common chickweed (Stellaria media)
Summary of the method: as §3

false cleavers [12] = assay: Test Example 4: herbicidal effect by soil treatment (Table 19, symbol Q); format: in vivo, false cleavers (Galium spurium)
Summary of the method: as §3

persian speedwell [13] = assay: Test Example 4: herbicidal effect by soil treatment (Table 19, symbol R); format: in vivo, Persian speedwell (Veronica persica)
Summary of the method: as §3

southern crabgrass [14] = assay: Test Example 5: herbicidal effect by foliage application, plastic box (Table 20, symbol F); format: in vivo, southern crabgrass (Digitaria ciliaris); settings: foliage application, 320 g/ha
Summary of the method: (§4)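 Post-emergence foliar test in sterilized diluvial soil. Compound applied as water-diluted emulsion at a predetermined rate to 14-day-old plants; evaluation at three weeks.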

green foxtail [15] = assay: Test Example 5: herbicidal effect by foliage application, plastic box (Table 20, symbol G); format: in vivo, green foxtail (Setaria viridis); settings: foliage application, 320 g/ha
Summary of the method: as §4

barnyard grass [16] = assay: Test Example 5: herbicidal effect by foliage application, plastic box (Table 20, symbol H); format: in vivo, barnyard grass (Echinochloa crus-galli); settings: foliage application, 320 g/ha
Summary of the method: as §4

wild oat [17] = assay: Test Example 5: herbicidal effect by foliage application, plastic box (Table 20, symbol I); format: in vivo, wild oat (Avena fatua); settings: foliage application, 320 g/ha
Summary of the method: as §4

blackgrass [18] = assay: Test Example 5: herbicidal effect by foliage application, plastic box (Table 20, symbol J); format: in vivo, blackgrass (Alopecurus myosuroides); settings: foliage application, 320 g/ha
Summary of the method: as §4

Italian ryegrass [19] = assay: Test Example 5: herbicidal effect by foliage application, plastic box (Table 20, symbol K); format: in vivo, Italian ryegrass (Lolium multiflorum); settings: foliage application, 320 g/ha
Summary of the method: as §4

windgrass [20] = assay: Test Example 5: herbicidal effect by foliage application, plastic box (Table 20, symbol L); format: in vivo, windgrass (Apera spica-venti); settings: foliage application, 320 g/ha, 3 weeks after application
Summary of the method: as §4

velvetleaf [21] = assay: Test Example 5: herbicidal effect by foliage application, plastic box (Table 20, symbol M); format: in vivo, velvetleaf (Abutilon theophrasti); settings: foliage application, 320 g/ha
Summary of the method: as §4

lambsquarters [22] = assay: Test Example 5: herbicidal effect by foliage application, plastic box (Table 20, symbol O); format: in vivo, lambsquarters (Chenopodium album); settings: foliage application, 320 g/ha
Summary of the method: as §4

false cleavers [23] = assay: Test Example 5: herbicidal effect by foliage application, plastic box (Table 20, symbol Q); format: in vivo, false cleavers (Galium spurium); settings: foliage application, 320 g/ha
Summary of the method: as §4

persian speedwell [24] = assay: Test Example 5: herbicidal effect by foliage application, plastic box (Table 20, symbol R); format: in vivo, Persian speedwell (Veronica persica); settings: foliage application, 320 g/ha
Summary of the method: as §4

chickweed [25] = assay: Test Example 5: herbicidal effect by foliage application, plastic box (Table 20, symbol P); format: in vivo, common chickweed (Stellaria media); settings: foliage application, 320 g/ha, evaluated three weeks after application
Summary of the method: as §4

[26] = amount of applied herbicide 320 g/ha
[27] = evaluated three weeks after application

COc1nn(C)c(=O)c(-c2c(-c3ccc4c(c3)OCCO4)sc3ccccc23)c1O [1-198]
Herbicidal effect on A: late watergrass (grade 0-5) (late watergrass): 3 (Herbicidal rate of 40% or more and less than 70%)
Herbicidal effect on B: Japanese bulrush (grade 0-5) (Japanese bulrush): 0 (Herbicidal rate of 5% or less (almost no effect))
Herbicidal effect on C: oval-leafed pondweed (grade 0-5) (oval-leafed pondweed): 0 (Herbicidal rate of 5% or less (almost no effect))
herbicidal effect on H (barnyard grass), rating 0-5 (barnyard grass [1]; 320 g/ha): 5 (Herbicidal rate of 90% or more (almost completely withered))
herbicidal effect on D (Chinese sprangletop), rating 0-5 (Chinese sprangletop; 320 g/ha): 3 (Herbicidal rate of 40% or more and less than 70%)
herbicidal effect on E (rice flat sedge), rating 0-5 (rice flat sedge; 320 g/ha): 5 (Herbicidal rate of 90% or more (almost completely withered))
F: southern crabgrass, herbicidal effect rating (southern crabgrass [2]; AAH 320 g/ha): 0 (Herbicidal rate of 5% or less (almost no effect))
G: green foxtail, herbicidal effect rating (green foxtail [3]; AAH 320 g/ha): 5 (Herbicidal rate of 90% or more (almost completely withered))
H: barnyard grass, herbicidal effect rating (barnyard grass [4]; AAH 320 g/ha): 2 (Herbicidal rate of 20% or more and less than 40%)
I: wild oat, herbicidal effect rating (wild oat [5]; AAH 320 g/ha): 0 (Herbicidal rate of 5% or less (almost no effect))
J: blackgrass, herbicidal effect rating (blackgrass [6]; AAH 320 g/ha): 0 (Herbicidal rate of 5% or less (almost no effect))
K: Italian ryegrass, herbicidal effect rating (Italian ryegrass [7]; AAH 320 g/ha): 0 (Herbicidal rate of 5% or less (almost no effect))
L: windgrass, herbicidal effect rating (windgrass [8]; AAH 320 g/ha): 0 (Herbicidal rate of 5% or less (almost no effect))
M: velvetleaf, herbicidal effect rating (velvetleaf [9]; AAH 320 g/ha): 5 (Herbicidal rate of 90% or more (almost completely withered))
N: redroot pigweed, herbicidal effect rating (redroot pigweed; AAH 320 g/ha): 0 (Herbicidal rate of 5% or less (almost no effect))
O: lambsquarters, herbicidal effect rating (lambsquarters [10]; AAH 320 g/ha): 0 (Herbicidal rate of 5% or less (almost no effect))
P: chickweed, herbicidal effect rating (chickweed [11]; AAH 320 g/ha): 5 (Herbicidal rate of 90% or more (almost completely withered))
Q: false cleavers, herbicidal effect rating (false cleavers [12]; AAH 320 g/ha): 1 (Herbicidal rate of 5% or more and less than 20%)
R: persian speedwell, herbicidal effect rating (persian speedwell [13]; AAH 320 g/ha): 5 (Herbicidal rate of 90% or more (almost completely withered))
effect on southern crabgrass (F) (southern crabgrass [14]; 3 weeks after application): 4 (Herbicidal rate of 70% or more and less than 90%)
effect on green foxtail (G) (green foxtail [15]; 3 weeks after application): 4 (Herbicidal rate of 70% or more and less than 90%)
effect on barnyard grass (H) (barnyard grass [16]; 3 weeks after application): 2 (Herbicidal rate of 20% or more and less than 40%)
effect on wild oat (I) (wild oat [17]; 3 weeks after application): 0 (Herbicidal rate of 5% or less (almost no effect))
effect on blackgrass (J) (blackgrass [18]; 3 weeks after application): 0 (Herbicidal rate of 5% or less (almost no effect))
effect on Italian ryegrass (K) (Italian ryegrass [19]; 3 weeks after application): 4 (Herbicidal rate of 70% or more and less than 90%)
effect on windgrass (L) (windgrass [20]): 0 (Herbicidal rate of 5% or less (almost no effect))
effect on velvetleaf (M) (velvetleaf [21]; 3 weeks after application): 4 (Herbicidal rate of 70% or more and less than 90%)
effect on lambsquarters (O) (lambsquarters [22]; 3 weeks after application): 2 (Herbicidal rate of 20% or more and less than 40%)
effect on false cleavers (Q) (false cleavers [23]; 3 weeks after application): 1 (Herbicidal rate of 5% or more and less than 20%)
effect on persian speedwell (R) (persian speedwell [24]; 3 weeks after application): 5 (Herbicidal rate of 90% or more (almost completely withered))

CCCC(=O)Oc1c(C)nn(C)c(=O)c1-c1c(-c2ccc(F)cc2OC)sc2ccc(C)cc12 [2-149]
Herbicidal effect on A: late watergrass (grade 0-5) (late watergrass): 3 (Herbicidal rate of 40% or more and less than 70%)
Herbicidal effect on B: Japanese bulrush (grade 0-5) (Japanese bulrush): 1 (Herbicidal rate of 5% or more and less than 20%)
Herbicidal effect on C: oval-leafed pondweed (grade 0-5) (oval-leafed pondweed): 0 (Herbicidal rate of 5% or less (almost no effect))
herbicidal effect on H: barnyard grass (barnyard grass [1]; [26]): 5 (Herbicidal rate of 90% or more (almost completely withered))
herbicidal effect on D: Chinese sprangletop (Chinese sprangletop; [26]): 0 (Herbicidal rate of 5% or less (almost no effect))
herbicidal effect on E: rice flat sedge (rice flat sedge; [26]): 3 (Herbicidal rate of 40% or more and less than 70%)
F: southern crabgrass, herbicidal effect rating (southern crabgrass [2]; [26]): 0 (Herbicidal rate of 5% or less (almost no effect))
G: green foxtail, herbicidal effect rating (green foxtail [3]; [26]): 4 (Herbicidal rate of 70% or more and less than 90%)
H: barnyard grass, herbicidal effect rating (barnyard grass [4]; [26]): 0 (Herbicidal rate of 5% or less (almost no effect))
I: wild oat, herbicidal effect rating (wild oat [5]; [26]): 0 (Herbicidal rate of 5% or less (almost no effect))
J: blackgrass, herbicidal effect rating (blackgrass [6]; [26]): 0 (Herbicidal rate of 5% or less (almost no effect))
K: Italian ryegrass, herbicidal effect rating (Italian ryegrass [7]; [26]): 0 (Herbicidal rate of 5% or less (almost no effect))
L: windgrass, herbicidal effect rating (windgrass [8]; [26]): 0 (Herbicidal rate of 5% or less (almost no effect))
M: velvetleaf, herbicidal effect rating (velvetleaf [9]; [26]): 0 (Herbicidal rate of 5% or less (almost no effect))
N: redroot pigweed, herbicidal effect rating (redroot pigweed; [26]): 5 (Herbicidal rate of 90% or more (almost completely withered))
O: lambsquarters, herbicidal effect rating (lambsquarters [10]; [26]): 4 (Herbicidal rate of 70% or more and less than 90%)
P: chickweed, herbicidal effect rating (chickweed [11]; [26]): 3 (Herbicidal rate of 40% or more and less than 70%)
Q: false cleavers, herbicidal effect rating (false cleavers [12]; [26]): 3 (Herbicidal rate of 40% or more and less than 70%)
R: persian speedwell, herbicidal effect rating (persian speedwell [13]; [26]): 3 (Herbicidal rate of 40% or more and less than 70%)
herbicidal effect on F: southern crabgrass (criteria 0-5) (southern crabgrass [14]; [27]): 3 (Herbicidal rate of 40% or more and less than 70%)
herbicidal effect on G: green foxtail (criteria 0-5) (green foxtail [15]; [27]): 5 (Herbicidal rate of 90% or more (almost completely withered))
herbicidal effect on H: barnyard grass (criteria 0-5) (barnyard grass [16]; [27]): 3 (Herbicidal rate of 40% or more and less than 70%)
herbicidal effect on I: wild oat (criteria 0-5) (wild oat [17]; [27]): 1 (Herbicidal rate of 5% or more and less than 20%)
herbicidal effect on J: blackgrass (criteria 0-5) (blackgrass [18]; [27]): 2 (Herbicidal rate of 20% or more and less than 40%)
herbicidal effect on K: Italian ryegrass (criteria 0-5) (Italian ryegrass [19]; [27]): 0 (Herbicidal rate of 5% or less (almost no effect))
herbicidal effect on M: velvetleaf (criteria 0-5) (velvetleaf [21]; [27]): 1 (Herbicidal rate of 5% or more and less than 20%)
herbicidal effect on O: lambsquarters (criteria 0-5) (lambsquarters [22]; [27]): 4 (Herbicidal rate of 70% or more and less than 90%)
herbicidal effect on P: chickweed (criteria 0-5) (chickweed [25]): 5 (Herbicidal rate of 90% or more (almost completely withered))
herbicidal effect on Q: false cleavers (criteria 0-5) (false cleavers [23]; [27]): 3 (Herbicidal rate of 40% or more and less than 70%)
herbicidal effect on R: persian speedwell (criteria 0-5) (persian speedwell [24]; [27]): 3 (Herbicidal rate of 40% or more and less than 70%)

— patent publication US20230085307A1, “PYRIDAZINONE COMPOUND AND HERBICIDE” (NISSAN CHEMICAL CORPORATION, priority 2019, published 2023)
